Experiments:
[1] = tested on: animal model of IBS-like colonic hypersensitivity; conditions: cited from earlier work
[2] = tested on: patients with hyperphosphatemia; conditions: clinical; cited from earlier work
[3] = Dissolution of capsule and tablet prototypes, USP apparatus II (paddle), 75 rpm, 900 mL media, 37° C.; assay type: physicochemical; conditions: comparison between forms, prototypes or pH
Experimental: FIG. 1: Dissolution of 15 mg tenapanor HCl tablets and tenapanor free base tablets in FeSSIF media pH 5.0. Dissolution method: USP apparatus II (paddle), 75 rpm, 900 mL of media at 37° C. FIG. 2: Dissolution of capsule I, neat tenapanor HCl powder in HPMC capsules (Vcaps® from Capsugel®) in FaSSIF media pH 6.5, FeSSIF media pH 5 and in 0.1N HCl. Dissolution method: USP apparatus II (paddle), 75 rpm, 900 mL of media at 37° C. […] Below are the composition of some of the capsule and tablet formulations as well as maximum dissolution observed in 0.1N HCl, pH 5 FeSSIF media and pH 6 FaSSIF media. Tablets from the same prototype designation differed by tenapanor loading and salt/free-base form but had the same disintegrant, glidant and lubricant excipients in the same % w/w but varied in the % w/w of tenapanor and filler making up the remainder of tablet.

[4] = tested on: Irritable Bowel Syndrome with Constipation (IBS-C) patients; conditions: bis-HCl salt form, clinical; cited from earlier work

For `CN1Cc2c(Cl)cc(Cl)cc2[C@H](c2cccc(S(=O)(=O)NCCOCCOCCNC(=O)NCCCCNC(=O)NCCOCCOCCNS(=O)(=O)c3cccc([C@@H]4CN(C)Cc5c(Cl)cc(Cl)cc54)c3)c2)C1` [tenapanor, 1-[2-[2-[2-[[3-[(4S)-6,8-dichloro-2-methyl-3,4-dihydro-1H-isoquinolin-4-yl]phenyl]sulfonylamino]ethoxy]ethoxy]ethyl]-3-[4-[2-[2-[2-[[3-[(4S)-6,8-dichloro-2-methyl-3,4-dihydro-1H-isoquinolin-4-yl]phenyl]sulfonylamino]ethoxy]ethoxy]ethylcarbamoylamino]butyl]urea], the “colonic sensory neuronal excitability and TRPV1 currents” value [1] is listed as “normalized colonic sensory neuronal excitability and Transient Receptor Potential Vanilloid 1 (TRPV1) currents”, the visceral hyperalgesia [1] is listed as “reduced visceral hyperalgesia” and the serum phosphate [2] is listed as “lower serum phosphate”. For the same molecule, the “dissolution, comparison in words” value [3] was “better dissolution at low pH” and the abdominal pain [4] was “reduce abdominal pain”.

— patent publication US12539299B2, “Oral formulation of a therapeutic compound” (ARDELYX, INC., priority 2020, dated 2026)
